The source made the active and inactive calls. No cut-off for these calls is given here.
Columns and labels:
CAL-27 [1] = assay: Induction of apoptosis in human CAL-27 cells assessed as increase in BIM expression at 0.5 uM incubated for 48 hrs in presence of cisplatin by Western blot analysis; assay type: functional, cell-based
[2] = target: Matrix metalloproteinase-9 (Homo sapiens) (UniProt P14780); assay: Inhibition of MMP9 (unknown origin) at 10 uM relative to control
[3] = target: T1, Interstitial collagenase (Homo sapiens) (UniProt P03956); assay: Inhibition of MMP1 (unknown origin) at 10 uM relative to control
T1 sequence (whole entry): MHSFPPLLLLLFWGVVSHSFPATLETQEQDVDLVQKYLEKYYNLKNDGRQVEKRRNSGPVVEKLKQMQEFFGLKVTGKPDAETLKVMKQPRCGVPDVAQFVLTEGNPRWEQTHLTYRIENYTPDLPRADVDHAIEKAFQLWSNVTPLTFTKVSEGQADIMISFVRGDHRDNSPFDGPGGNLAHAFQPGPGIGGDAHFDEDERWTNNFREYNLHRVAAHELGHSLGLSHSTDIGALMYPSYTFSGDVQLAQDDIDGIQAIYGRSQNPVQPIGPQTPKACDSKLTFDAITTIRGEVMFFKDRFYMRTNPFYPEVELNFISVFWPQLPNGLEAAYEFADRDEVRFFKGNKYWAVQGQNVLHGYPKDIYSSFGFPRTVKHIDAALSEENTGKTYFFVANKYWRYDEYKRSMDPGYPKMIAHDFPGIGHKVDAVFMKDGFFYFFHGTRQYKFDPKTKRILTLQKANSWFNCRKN

CAL-27 [4] = assay: Induction of apoptosis in human CAL-27 cells assessed as increase in BIM expression at 0.5 uM incubated for 48 hrs by Western blot analysis; assay type: functional, cell-based
CAL-27 [5] = assay: Anti-apoptotic activity in human CAL-27 cells assessed as increase in survivin expression at 0.5 uM incubated for 48 hrs in presence of cisplatin by Western blot analysis; assay type: functional, cell-based
A2780cisR = assay: cells; conditions: Homo sapiens
CAL-27 [6] = assay: Induction of DNA damage in human CAL-27 cells assessed as gamma-H2AX accumulation at 0.5 uM by Western blot analysis; assay type: functional, cell-based
CAL-27 [7] = assay: Induction of DNA damage in human CAL-27 cells assessed as gamma-H2AX accumulation at 0.5 uM in presence of cisplatin by Western blot analysis; assay type: functional, cell-based
A2780 [8] = assay: cells; conditions: Homo sapiens
CAL-27 [9] = assay: Anti-apoptotic activity in human CAL-27 cells assessed as increase in BCL-2 expression at 0.5 uM incubated for 48 hrs in presence of cisplatin by Western blot analysis; assay type: functional, cell-based
[10] = target: 72 kDa type IV collagenase (Homo sapiens) (UniProt P08253); assay: Inhibition of MMP2 (unknown origin) at 10 uM relative to control
[11] = target: Stromelysin-1 (Homo sapiens) (UniProt P08254); assay: Inhibition of MMP3 (unknown origin) at 10 uM relative to control
Cal27CisR [12] = assay: Induction of DNA damage in human Cal27CisR cells assessed as gamma-H2AX accumulation at 0.5 uM by Western blot analysis; assay type: functional, cell-based
cells [13] = conditions: Homo sapiens, Cal27CisR
[14] = target: Glutaminyl-peptide cyclotransferase (Homo sapiens) (UniProt Q16769); assay: Inhibition of glutaminyl cyclase (unknown origin) at 10 uM relative to control
Cal27CisR [15] = assay: Induction of DNA damage in human Cal27CisR cells assessed as gamma-H2AX accumulation at 0.5 uM in presence of cisplatin by Western blot analysis; assay type: functional, cell-based
A2780 [16] = assay: Induction of cell cycle arrest in human A2780 cells assessed as increase in accumulation of cells at subG1 phase; assay type: functional, cell-based
CAL-27 [17] = assay: cells; conditions: Homo sapiens, CAL-27, 72 h
A2780 [18] = assay: Induction of cell cycle arrest in human A2780 cells assessed as increase in accumulation of cells at subG1 phase 0.5 to 1 uM; assay type: functional, cell-based; conditions: dose 0.5-1 µM
[19] = Metabolic stability in human liver microsome assessed as half life; assay type: ADME, microsomes; conditions: microsomes
CAL-27 [20] = assay: Anti-apoptotic activity in human CAL-27 cells assessed as increase in survivin expression at 0.5 uM incubated for 48 hrs by Western blot analysis; assay type: functional, cell-based
[21] = target: Collagenase 3 (Homo sapiens) (UniProt P45452); assay: Inhibition of MMP13 (unknown origin) at 10 uM relative to control
cells [22] = conditions: Homo sapiens, Cal27CisR, 72 h
[23] = Lipophilicity, logD of compound at pH 7.4; assay type: physicochemical; conditions: buffer
CAL-27 [24] = assay: Anti-apoptotic activity in human CAL-27 cells assessed as increase in BCL-2 expression at 0.5 uM incubated for 48 hrs by Western blot analysis; assay type: functional, cell-based
HL-60 = assay: cells; conditions: Homo sapiens, HL-60, 72 h
Description: Cytotoxicity against human HL-60 cells assessed as cell viability incubated for 72 hrs by MTT assay

[25] = Metabolic stability in human liver microsome assessed as intrinsic clearance; assay type: ADME; conditions: microsomes

Matrix metalloproteinase-9 (Homo sapiens), sequence (P14780 whole entry): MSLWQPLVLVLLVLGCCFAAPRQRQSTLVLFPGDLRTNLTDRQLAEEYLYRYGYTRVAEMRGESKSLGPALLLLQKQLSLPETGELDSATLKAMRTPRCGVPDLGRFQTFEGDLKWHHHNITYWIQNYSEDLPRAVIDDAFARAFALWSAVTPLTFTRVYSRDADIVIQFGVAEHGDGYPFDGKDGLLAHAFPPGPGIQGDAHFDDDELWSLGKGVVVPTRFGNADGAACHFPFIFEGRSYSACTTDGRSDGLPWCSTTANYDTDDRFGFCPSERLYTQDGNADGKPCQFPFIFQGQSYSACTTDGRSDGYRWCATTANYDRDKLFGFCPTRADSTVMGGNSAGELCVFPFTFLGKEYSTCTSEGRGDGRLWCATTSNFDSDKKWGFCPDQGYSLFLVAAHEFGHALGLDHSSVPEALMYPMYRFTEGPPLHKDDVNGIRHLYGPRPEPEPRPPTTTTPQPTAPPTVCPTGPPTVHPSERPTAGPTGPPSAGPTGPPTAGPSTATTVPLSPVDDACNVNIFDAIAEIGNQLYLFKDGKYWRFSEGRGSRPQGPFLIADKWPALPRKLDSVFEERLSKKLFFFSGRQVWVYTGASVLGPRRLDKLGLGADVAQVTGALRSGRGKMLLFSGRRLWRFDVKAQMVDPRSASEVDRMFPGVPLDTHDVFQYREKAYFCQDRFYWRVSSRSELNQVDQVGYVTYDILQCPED
Glutaminyl-peptide cyclotransferase (Homo sapiens), sequence (Q16769 29-361 limits assumed): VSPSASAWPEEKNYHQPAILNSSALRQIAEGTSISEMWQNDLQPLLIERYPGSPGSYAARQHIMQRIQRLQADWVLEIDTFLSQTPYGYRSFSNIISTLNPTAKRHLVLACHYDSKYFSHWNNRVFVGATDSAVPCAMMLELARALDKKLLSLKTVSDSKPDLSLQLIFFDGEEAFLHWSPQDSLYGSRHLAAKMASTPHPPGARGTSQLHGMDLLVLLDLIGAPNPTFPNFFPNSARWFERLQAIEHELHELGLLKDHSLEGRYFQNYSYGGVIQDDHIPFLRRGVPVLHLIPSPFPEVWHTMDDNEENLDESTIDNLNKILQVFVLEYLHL
72 kDa type IV collagenase (Homo sapiens), sequence (P08253 110-660 limits assumed): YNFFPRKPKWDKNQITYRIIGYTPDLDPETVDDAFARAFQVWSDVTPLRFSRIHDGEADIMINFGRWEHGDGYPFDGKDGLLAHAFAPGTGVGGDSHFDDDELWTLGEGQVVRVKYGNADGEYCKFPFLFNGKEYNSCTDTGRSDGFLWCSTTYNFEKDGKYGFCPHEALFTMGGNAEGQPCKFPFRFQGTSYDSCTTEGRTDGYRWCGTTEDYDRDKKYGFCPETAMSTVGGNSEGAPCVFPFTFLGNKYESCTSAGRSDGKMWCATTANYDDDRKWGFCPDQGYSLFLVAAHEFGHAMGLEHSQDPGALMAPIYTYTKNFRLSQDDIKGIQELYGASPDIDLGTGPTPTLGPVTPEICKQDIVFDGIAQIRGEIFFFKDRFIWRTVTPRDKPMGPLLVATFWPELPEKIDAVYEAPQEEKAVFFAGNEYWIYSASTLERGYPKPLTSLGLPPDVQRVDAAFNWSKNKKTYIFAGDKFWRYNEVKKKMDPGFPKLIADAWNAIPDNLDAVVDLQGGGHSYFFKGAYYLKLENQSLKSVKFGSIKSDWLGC
Stromelysin-1 (Homo sapiens), sequence (P08254 100-477 limits assumed): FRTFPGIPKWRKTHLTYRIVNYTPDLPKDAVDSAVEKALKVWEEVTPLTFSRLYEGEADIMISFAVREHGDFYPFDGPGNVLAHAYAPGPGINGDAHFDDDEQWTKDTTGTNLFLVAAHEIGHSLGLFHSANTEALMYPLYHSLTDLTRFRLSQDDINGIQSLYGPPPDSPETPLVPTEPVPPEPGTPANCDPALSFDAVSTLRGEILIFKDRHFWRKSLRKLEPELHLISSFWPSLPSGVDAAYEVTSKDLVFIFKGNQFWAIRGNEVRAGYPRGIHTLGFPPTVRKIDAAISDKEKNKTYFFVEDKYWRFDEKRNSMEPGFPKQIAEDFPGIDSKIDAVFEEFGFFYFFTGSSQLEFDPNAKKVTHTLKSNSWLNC

With CCNNC(=O)c1ccc(CN(CC(=O)NCc2ccccc2)C(=O)c2ccc(N(C)C)cc2)cc1 the Activity (CAL-27 [1]) was “Active”, the inhibition [2] was “inactive” and the inhibition [3] was “inactive”. The Activity (CAL-27 [4]) was “Active”, the Activity (CAL-27 [5]) was “Active” and the IC50 (A2780cisR) was 16000 nM. For the same compound, the Activity (CAL-27 [6]) was “Active”, the Activity (CAL-27 [7]) was “Active” and the IC50 (A2780 [8]) was 3500 nM. For the same compound, the Activity (CAL-27 [9]) was “Active”, the inhibition [10] was “inactive” and the inhibition [11] was “inactive”. The Activity (Cal27CisR [12]) was “Active”, the IC50 (cells [13]) was 16500 nM and the inhibition [14] was “inactive”. For the same compound, the Activity (Cal27CisR [15]) was “Active”, the Activity (A2780 [16]) was “Active” and the IC50 (CAL-27 [17]) was 1470 nM. For the same compound, the Activity (A2780 [18]) was “Active”, the t1/2 [19] was 33.93 min and the Activity (CAL-27 [20]) was “Active”. The inhibition [21] was “inactive”, the IC50 (cells [22]) was 2230 nM and the logD [23] was 2.69. The Activity (CAL-27 [24]) was “Active”, the IC50 (HL-60) was 969 nM and the CLH [25] was 40.9 µL/min/mg.

Source: ChEMBL document CHEMBL6153132 (J Med Chem, 2025)
